Assay results reported in PubChem BioAssay AID2060905 (Molecular Pharmacology Branch, DTP, NCI, 2025).

System: 282377-053-R-J1-PDC complex spheroid viability
Test: Anticancer human tumor 282377-053-R-J1-PDC patient-derived colon adenocarcinoma cell line growth inhibition [RAS]
Settings: for IC50: curve of first compound; for viability, T/C: stronger effect = lower value; active = viability on the fitted dose curve at most 10% of control; inactive = the rest
Procedure, shortened: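 Multi-cell-type spheroids: tumor cells plus HUVEC endothelial cells and mesenchymal stem cells. RAS-pathway inhibitors were combined with targeted agents, each dosed in half-log steps down from clinical Cmax, or from 10 microM when Cmax was unknown.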

[1] = second compound 0.00316 µM, first compound 0.000949 µM
[2] = second compound 0.00316 µM, first compound 0.003 µM
[3] = second compound 0.00316 µM, first compound 0.00949 µM
[4] = second compound 0.00316 µM, first compound 0.03 µM
[5] = second compound 0.00316 µM, first compound 0.0949 µM
[6] = second compound 0.00316 µM, first compound 0.3 µM
[7] = second compound 0.01 µM, first compound 0.000949 µM
[8] = second compound 0.01 µM, first compound 0.003 µM
[9] = second compound 0.01 µM, first compound 0.00949 µM
[10] = second compound 0.01 µM, first compound 0.03 µM
[11] = second compound 0.01 µM, first compound 0.0949 µM
[12] = second compound 0.01 µM, first compound 0.3 µM
[13] = second compound 0.0316 µM, first compound 0.000949 µM
[14] = second compound 0.0316 µM, first compound 0.003 µM
[15] = second compound 0.0316 µM, first compound 0.00949 µM
[16] = second compound 0.0316 µM, first compound 0.03 µM
[17] = second compound 0.0316 µM, first compound 0.0949 µM
[18] = second compound 0.0316 µM, first compound 0.3 µM
[19] = second compound 0.1 µM, first compound 0.000949 µM
[20] = second compound 0.1 µM, first compound 0.003 µM
[21] = second compound 0.1 µM, first compound 0.00949 µM
[22] = second compound 0.1 µM, first compound 0.03 µM
[23] = second compound 0.1 µM, first compound 0.0949 µM
[24] = second compound 0.1 µM, first compound 0.3 µM
[25] = second compound 0.316 µM, first compound 0.000949 µM
[26] = second compound 0.316 µM, first compound 0.003 µM
[27] = second compound 0.316 µM, first compound 0.00949 µM
[28] = second compound 0.316 µM, first compound 0.03 µM
[29] = second compound 0.316 µM, first compound 0.0949 µM
[30] = second compound 0.316 µM, first compound 0.3 µM
[31] = second compound 1 µM, first compound 0.000949 µM
[32] = second compound 1 µM, first compound 0.003 µM
[33] = second compound 1 µM, first compound 0.00949 µM
[34] = second compound 1 µM, first compound 0.03 µM
[35] = second compound 1 µM, first compound 0.0949 µM
[36] = second compound 1 µM, first compound 0.3 µM
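Note: spheroids exposed to agents for seven days before readout.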
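Throughout, for viability, T/C: luminescence viability as percent of DMSO vehicle control wells.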

CC(=O)OC12COC1CC(O)C1(C)C(=O)C(O)C3=C(C)C(OC(=O)C(O)C(NC(=O)OC(C)(C)C)c4ccccc4)CC(O)(C(OC(=O)c4ccccc4)C21)C3(C)C (stereo unspecified) + C=CC(=O)N1CCN(c2nc(OCC3CCCN3C)nc3c(F)c(-c4nc(N)cc(C)c4C(F)(F)F)c(Cl)cc23)C(C)C1
inactive: viability, T/C (second compound 0.00316 µM, first compound 0.0316 µM) 24.3% | viability, T/C (second compound 0.00316 µM, first compound 0.1 µM) 19.9% | viability, T/C (second compound 0.00316 µM, first compound 0.316 µM) 16.3% | viability, T/C (second compound 0.00316 µM, first compound 1 µM) 29.4% | viability, T/C (second compound 0.00316 µM, first compound 3.16 µM) 39.7% | viability, T/C (second compound 0.00316 µM, first compound 10 µM) 54.2% | viability, T/C (second compound 0.01 µM, first compound 0.0316 µM) 25.9% | viability, T/C (second compound 0.01 µM, first compound 0.1 µM) 18% | viability, T/C (second compound 0.01 µM, first compound 0.316 µM) 22.7% | viability, T/C (second compound 0.01 µM, first compound 1 µM) 27.5% | viability, T/C (second compound 0.01 µM, first compound 3.16 µM) 38.6% | viability, T/C (second compound 0.01 µM, first compound 10 µM) 51.8% | viability, T/C (second compound 0.0316 µM, first compound 0.0316 µM) 22.9% | viability, T/C (second compound 0.0316 µM, first compound 0.1 µM) 20.5% | viability, T/C (second compound 0.0316 µM, first compound 0.316 µM) 18.1% | viability, T/C (second compound 0.0316 µM, first compound 1 µM) 26.9% | viability, T/C (second compound 0.0316 µM, first compound 3.16 µM) 34.2% | viability, T/C (second compound 0.0316 µM, first compound 10 µM) 57.8% | viability, T/C (second compound 0.1 µM, first compound 0.0316 µM) 24.1% | viability, T/C (second compound 0.1 µM, first compound 0.1 µM) 21.2% | viability, T/C (second compound 0.1 µM, first compound 0.316 µM) 20.1% | viability, T/C (second compound 0.1 µM, first compound 1 µM) 28.1% | viability, T/C (second compound 0.1 µM, first compound 3.16 µM) 38.4% | viability, T/C (second compound 0.1 µM, first compound 10 µM) 57.3% | viability, T/C (second compound 0.316 µM, first compound 0.0316 µM) 22% | viability, T/C (second compound 0.316 µM, first compound 0.1 µM) 21.6% | viability, T/C (second compound 0.316 µM, first compound 0.316 µM) 24.1% | viability, T/C (second compound 0.316 µM, first compound 1 µM) 25.5% | viability, T/C (second compound 0.316 µM, first compound 3.16 µM) 45.7% | viability, T/C (second compound 0.316 µM, first compound 10 µM) 53.6% | viability, T/C (second compound 1 µM, first compound 0.0316 µM) 27.8% | viability, T/C (second compound 1 µM, first compound 0.1 µM) 19.3% | viability, T/C (second compound 1 µM, first compound 0.316 µM) 28.1% | viability, T/C (second compound 1 µM, first compound 1 µM) 38% | viability, T/C (second compound 1 µM, first compound 3.16 µM) 44% | viability, T/C (second compound 1 µM, first compound 10 µM) 58.6%
< 31.6 nM: IC50 (second compound 0.00316 µM) | IC50 (second compound 0.01 µM) | IC50 (second compound 0.0316 µM) | IC50 (second compound 0.1 µM) | IC50 (second compound 0.316 µM) | IC50 (second compound 1 µM)

CC1(C)CCC(Nc2ncc(C(F)(F)F)c(-c3c[nH]c4c(P(C)(C)=O)c(C#N)ccc34)n2)CN1 (stereo unspecified) + C=CC(=O)N1CCN(c2nc(OCC3CCCN3C)nc3c(F)c(-c4nc(N)cc(C)c4C(F)(F)F)c(Cl)cc23)C(C)C1
inactive: viability, T/C [1] 114% | viability, T/C [2] 120% | viability, T/C [3] 79.9% | viability, T/C [4] 51.3% | viability, T/C [5] 61.1% | viability, T/C [6] 55.6% | viability, T/C [7] 123% | viability, T/C [8] 88.7% | viability, T/C [9] 85.1% | viability, T/C [10] 64.5% | viability, T/C [11] 58.8% | viability, T/C [12] 56.1% | viability, T/C [13] 91.7% | viability, T/C [14] 90.8% | viability, T/C [15] 72.3% | viability, T/C [16] 59.6% | viability, T/C [17] 64.8% | viability, T/C [18] 56.1% | viability, T/C [19] 105% | viability, T/C [20] 101% | viability, T/C [21] 91.3% | viability, T/C [22] 66.3% | viability, T/C [23] 73.1% | viability, T/C [24] 61.8% | viability, T/C [25] 90.2% | viability, T/C [26] 102% | viability, T/C [27] 87.9% | viability, T/C [28] 65.1% | viability, T/C [29] 58.5% | viability, T/C [30] 67.1% | viability, T/C [31] 92.9% | viability, T/C [32] 112% | viability, T/C [33] 86.8% | viability, T/C [34] 61.6% | viability, T/C [35] 67% | viability, T/C [36] 71.8%
> 300 nM: IC50 (second compound 0.00316 µM) | IC50 (second compound 0.01 µM) | IC50 (second compound 0.0316 µM) | IC50 (second compound 0.1 µM) | IC50 (second compound 0.316 µM) | IC50 (second compound 1 µM)

CCc1c2c(nc3ccc(O)cc13)-c1cc3c(c(=O)n1C2)COC(=O)[C@]3(O)CC + C=CC(=O)N1CCN(c2nc(OCC3CCCN3C)nc3c(F)c(-c4nc(N)cc(C)c4C(F)(F)F)c(Cl)cc23)C(C)C1
inactive: viability, T/C [1] 117% | viability, T/C [2] 122% | viability, T/C [3] 122% | viability, T/C [4] 99.6% | viability, T/C [5] 87.7% | viability, T/C [6] 59% | viability, T/C [7] 109% | viability, T/C [8] 119% | viability, T/C [9] 95.1% | viability, T/C [10] 93.9% | viability, T/C [11] 79.4% | viability, T/C [12] 66.1% | viability, T/C [13] 99.2% | viability, T/C [14] 109% | viability, T/C [15] 113% | viability, T/C [16] 93.2% | viability, T/C [17] 87% | viability, T/C [18] 61.7% | viability, T/C [19] 115% | viability, T/C [20] 126% | viability, T/C [21] 124% | viability, T/C [22] 85.8% | viability, T/C [23] 97.8% | viability, T/C [24] 65.1% | viability, T/C [25] 128% | viability, T/C [26] 114% | viability, T/C [27] 123% | viability, T/C [28] 98.6% | viability, T/C [29] 89.7% | viability, T/C [30] 64.2% | viability, T/C [31] 135% | viability, T/C [32] 126% | viability, T/C [33] 106% | viability, T/C [34] 94.2% | viability, T/C [35] 95.2% | viability, T/C [36] 61.2%
> 300 nM: IC50 (second compound 0.00316 µM) | IC50 (second compound 0.01 µM) | IC50 (second compound 0.0316 µM) | IC50 (second compound 0.1 µM) | IC50 (second compound 0.316 µM) | IC50 (second compound 1 µM)
